Reference: patent publication US10639253B2, “Compositions” (Symrise AG, priority 2014, dated 2020)

Assays:
Experiment in all cases: Antimicrobial activity in formulation: colony counts over 28 days, synergy by Kull equation
Settings in all cases: for Relative colony counts: relative to day 0; for Colony counts: counts <10 set to 10
A. brasiliensis = type: cell-based, Aspergillus brasiliensis
Text: Synergistic antimicrobial activity of lactate esters and other flavor and fragrance ingredients against different microorganisms relevant for cosmetics were investigated. To calculate the synergism between lactate esters and other flavor and fragrance ingredients, the Kull equation^1,2 was used ^1 Kull, […]., and R. L. Mayer (1961). Mixtures of Quaternary Ammonium Compounds and Long-chain Fatty Acids as Antifungal Agents. Applied Microbiology 9, 538-541.^2 Steinberg, D. C. (2000). Measuring Synergy. Cosmetics & Toiletries 115 (11), 59-62. SI=(Cmixture×PA)/CA+(Cmixture×PB)/CB where • SI is the Synergy Index according to Kull^1), 2) • CA is the cell count for substance A • CB is the cell count for substance B • Cmixture is the cell count for the mixture of substances A and B • PA is the proportion of the substance A in the mixture • PB is the proportion of the substance B in the mixture. […] The abbreviation “n.a.” means not applicable.

S. aureus = type: cell-based, Staphylococcus aureus
Text: (§1) Synergistic antimicrobial activity of lactate esters and other flavor and fragrance ingredients against different microorganisms relevant for cosmetics were investigated.
(§2) To calculate the synergism between lactate esters and other flavor and fragrance ingredients, the Kull equation^1,2 was used ^1 Kull, F. C., Eismann, P. C., Sylvestrowicz, H. D., and R. L. Mayer (1961). Mixtures of Quaternary Ammonium Compounds and Long-chain Fatty Acids as Antifungal Agents. Applied Microbiology 9, 538-541.^2 Steinberg, D. C. (2000). Measuring Synergy. Cosmetics & Toiletries 115 (11), 59-62. SI=(Cmixture×PA)/CA+(Cmixture×PB)/CB where • SI is the Synergy Index according to Kull^1), 2) • CA is the cell count for substance A • CB is the cell count for substance B • Cmixture is the cell count for the mixture of substances A and B • PA is the proportion of the substance A in the mixture • PB is the proportion of the substance B in the mixture.
(§3) Colony counts of <10 were arbitrarily set to 10, in order to allow for synergy calculations with the above equation. The abbreviation “n.a.” means not applicable.

E. coli = type: cell-based, Escherichia coli
Text: as §1, §2, §3

C. albicans = type: cell-based, Candida albicans
Text: as §1, §2, §3

Compound: COc1ccc(C(=O)O)cc1 [AAc, p-anisic acid]
- Relative colony counts (A. brasiliensis; 0.5%, day 0): 1.0000
- Relative colony counts (A. brasiliensis; 0.5%, day 2): 0.3514
- Colony counts (A. brasiliensis; 0.5%, day 7): 200.000 cfu/g formulation
- Relative colony counts (A. brasiliensis; 0.5%, day 7): 0.0541
- Relative colony counts (A. brasiliensis; 0.5%, day 14): 0.3243
- Relative colony counts (A. brasiliensis; 0.5%, day 28): 0.5676
- Relative colony counts (S. aureus; 0.5%, day 0): 1.0000
- Relative colony counts (S. aureus; 0.5%, day 2): 0.8095
- Colony counts (S. aureus; 0.5%, day 7): 130 cfu/g formulation
- Relative colony counts (S. aureus; 0.5%, day 7): 0.0001
- Colony counts (S. aureus; 0.5%, day 14): 10 cfu/g formulation
- Relative colony counts (S. aureus; 0.5%, day 14): 0.0000
- Colony counts (S. aureus; 0.5%, day 28): 10 cfu/g formulation
- Relative colony counts (S. aureus; 0.5%, day 28): 0.0000
- Relative colony counts (E. coli; 0.5%, day 0): 1.0000
- Colony counts (E. coli; 0.5%, day 2): 140.000 cfu/g formulation
- Relative colony counts (E. coli; 0.5%, day 2): 0.0609
- Colony counts (E. coli; 0.5%, day 7): 15.000 cfu/g formulation
- Relative colony counts (E. coli; 0.5%, day 7): 0.0065
- Colony counts (E. coli; 0.5%, day 14): 3.100 cfu/g formulation
- Relative colony counts (E. coli; 0.5%, day 14): 0.0013
- Colony counts (E. coli; 0.5%, day 28): 10 cfu/g formulation
- Relative colony counts (E. coli; 0.5%, day 28): 0.0000

Compound: COc1ccc(C=O)cc1 [AAld, p-anisic aldehyde]
- Relative colony counts (A. brasiliensis; 0.5%, day 0): 1.0000
- Colony counts (A. brasiliensis; 0.5%, day 2): 560.000 cfu/g formulation
- Relative colony counts (A. brasiliensis; 0.5%, day 2): 0.1931
- Colony counts (A. brasiliensis; 0.5%, day 7): 140.000 cfu/g formulation
- Relative colony counts (A. brasiliensis; 0.5%, day 7): 0.0483
- Colony counts (A. brasiliensis; 0.5%, day 14): 2.100 cfu/g formulation
- Relative colony counts (A. brasiliensis; 0.5%, day 14): 0.0007
- Colony counts (A. brasiliensis; 0.5%, day 28): 15 cfu/g formulation
- Relative colony counts (A. brasiliensis; 0.5%, day 28): 0.0000

Compound: CCCCCOC(=O)C(C)O (stereo not shown) [AL, amyl lactate]
- Relative colony counts (A. brasiliensis; 1%, day 0): 1.0000
- Colony counts (A. brasiliensis; 1%, day 2): 160.000 cfu/g formulation
- Relative colony counts (A. brasiliensis; 1%, day 2): 0.0552
- Relative colony counts (A. brasiliensis; 1%, day 7): 0.4828
- Colony counts (A. brasiliensis; 1%, day 14): 320.000 cfu/g formulation
- Relative colony counts (A. brasiliensis; 1%, day 14): 0.1103
- Colony counts (A. brasiliensis; 1%, day 28): 660 cfu/g formulation
- Relative colony counts (A. brasiliensis; 1%, day 28): 0.0002
- Relative colony counts (S. aureus; 1%, day 0): 1.0000
- Colony counts (S. aureus; 1%, day 2): 21.000 cfu/g formulation
- Relative colony counts (S. aureus; 1%, day 2): 0.0072
- Colony counts (S. aureus; 1%, day 7): 15 cfu/g formulation
- Relative colony counts (S. aureus; 1%, day 7): 0.0000
- Colony counts (S. aureus; 1%, day 14): 10 cfu/g formulation
- Relative colony counts (S. aureus; 1%, day 14): 0.0000
- Colony counts (S. aureus; 1%, day 28): 10 cfu/g formulation
- Relative colony counts (S. aureus; 1%, day 28): 0.0000

Compound: CC(O)C(=O)OCc1ccccc1 (stereo not shown) [BL, benzyl lactate]
- Relative colony counts (A. brasiliensis; 1%, day 0): 1.0000
- Colony counts (A. brasiliensis; 1%, day 2): 270.000 cfu/g formulation
- Relative colony counts (A. brasiliensis; 1%, day 2): 0.0931
- Colony counts (A. brasiliensis; 1%, day 7): 4.500 cfu/g formulation
- Relative colony counts (A. brasiliensis; 1%, day 7): 0.0016
- Colony counts (A. brasiliensis; 1%, day 14): 110 cfu/g formulation
- Relative colony counts (A. brasiliensis; 1%, day 14): 0.0000
- Colony counts (A. brasiliensis; 1%, day 28): 10 cfu/g formulation
- Relative colony counts (A. brasiliensis; 1%, day 28): 0.0000
- Relative colony counts (S. aureus; 1%, day 0): 1.0000
- Colony counts (S. aureus; 1%, day 2): 1.600 cfu/g formulation
- Relative colony counts (S. aureus; 1%, day 2): 0.0006
- Colony counts (S. aureus; 1%, day 7): 10 cfu/g formulation
- Relative colony counts (S. aureus; 1%, day 7): 0.0000
- Colony counts (S. aureus; 1%, day 14): 10 cfu/g formulation
- Relative colony counts (S. aureus; 1%, day 14): 0.0000
- Colony counts (S. aureus; 1%, day 28): 10 cfu/g formulation
- Relative colony counts (S. aureus; 1%, day 28): 0.0000

Compound: CCCCOC(=O)C(C)O (stereo not shown) [BuL, butyl lactate]
- Relative colony counts (C. albicans; 1.25%, day 0): 1.0000
- Colony counts (C. albicans; 1.25%, day 2): 740.000 cfu/g formulation
- Relative colony counts (C. albicans; 1.25%, day 2): 0.3083
- Colony counts (C. albicans; 1.25%, day 7): 430 cfu/g formulation
- Relative colony counts (C. albicans; 1.25%, day 7): 0.0002
- Colony counts (C. albicans; 1.25%, day 14): 10 cfu/g formulation
- Relative colony counts (C. albicans; 1.25%, day 14): 0.0000
- Colony counts (C. albicans; 1.25%, day 28): 10 cfu/g formulation
- Relative colony counts (C. albicans; 1.25%, day 28): 0.0000
- Relative colony counts (A. brasiliensis; 1.25%, day 0): 1.0000
- Colony counts (A. brasiliensis; 1.25%, day 2): 730.000 cfu/g formulation
- Relative colony counts (A. brasiliensis; 1.25%, day 2): 0.2517
- Relative colony counts (A. brasiliensis; 1.25%, day 7): 0.5517
- Relative colony counts (A. brasiliensis; 1.25%, day 14): 0.3793
- Colony counts (A. brasiliensis; 1.25%, day 28): 150.000 cfu/g formulation
- Relative colony counts (A. brasiliensis; 1.25%, day 28): 0.0517
- Relative colony counts (E. coli; 1.25%, day 0): 1.0000
- Colony counts (E. coli; 1.25%, day 2): 13.000 cfu/g formulation
- Relative colony counts (E. coli; 1.25%, day 2): 0.0041
- Colony counts (E. coli; 1.25%, day 7): 10 cfu/g formulation
- Relative colony counts (E. coli; 1.25%, day 7): 0.0000
- Colony counts (E. coli; 1.25%, day 14): 10 cfu/g formulation
- Relative colony counts (E. coli; 1.25%, day 14): 0.0000
- Colony counts (E. coli; 1.25%, day 28): 10 cfu/g formulation
- Relative colony counts (E. coli; 1.25%, day 28): 0.0000

Compound: OCCCc1ccccc1 [PP, 3-phenylpropanol]
- Relative colony counts (C. albicans; 0.5%, day 0): 1.0000
- Relative colony counts (C. albicans; 0.5%, day 2): 0.4583
- Colony counts (C. albicans; 0.5%, day 7): 930.000 cfu/g formulation
- Relative colony counts (C. albicans; 0.5%, day 7): 0.3875
- Colony counts (C. albicans; 0.5%, day 14): 31.000 cfu/g formulation
- Relative colony counts (C. albicans; 0.5%, day 14): 0.0129
- Colony counts (C. albicans; 0.5%, day 28): 10 cfu/g formulation
- Relative colony counts (C. albicans; 0.5%, day 28): 0.0000
- Relative colony counts (S. aureus; 0.5%, day 0): 1.0000
- Colony counts (S. aureus; 0.5%, day 2): 23.000 cfu/g formulation
- Relative colony counts (S. aureus; 0.5%, day 2): 0.0079
- Colony counts (S. aureus; 0.5%, day 7): 80 cfu/g formulation
- Relative colony counts (S. aureus; 0.5%, day 7): 0.0000
- Colony counts (S. aureus; 0.5%, day 14): 10 cfu/g formulation
- Relative colony counts (S. aureus; 0.5%, day 14): 0.0000
- Colony counts (S. aureus; 0.5%, day 28): 10 cfu/g formulation
- Relative colony counts (S. aureus; 0.5%, day 28): 0.0000
